Source: PubChem BioAssay (NCI)
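GI50: concentration for 50% inhibition of growth. TGI: total growth inhibition.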

Tests used:
Test in all cases: NCI tumour cell line growth inhibition, 384-well format
[1] = test system: NCI-H226 lung
[2] = test system: IGROV1 ovarian
[3] = test system: OVCAR-8 ovarian
[4] = test system: MOLT-4 leukemia
[5] = test system: SNB-19 CNS
[6] = test system: TK-10 renal
[7] = test system: SW-620 colon
[8] = test system: SK-MEL-5 melanoma
[9] = test system: BT-549 breast
[10] = test system: MCF7 breast
[11] = test system: NCI-H23 lung
[12] = test system: K-562 leukemia
[13] = test system: COLO 205 colon
[14] = test system: UACC-62 melanoma
[15] = test system: SK-MEL-28 melanoma
[16] = test system: SNB-75 CNS
[17] = test system: PC-3 prostate
[18] = test system: T-47D breast
[19] = test system: NCI-H460 NSCLC
[20] = test system: MDA-MB-231 breast
[21] = test system: SN12C renal
[22] = test system: A498 renal
[23] = test system: NCI-H322M lung
[24] = test system: OVCAR-3 ovarian
[25] = test system: RPMI-8226 leukemia
[26] = test system: CCRF-CEM leukemia
[27] = test system: RXF 393 renal
[28] = test system: 786-0 renal
[29] = test system: KM12 colon
[30] = test system: SF-295 CNS
[31] = test system: DU-145 prostate
[32] = test system: HOP-92 NSCLC
[33] = test system: HCC-2998 colon
[34] = test system: SF-539 CNS
[35] = test system: HS 578T breast
[36] = test system: HCT-15 colon
[37] = test system: NCI/ADR-RES ovarian
[38] = test system: A549 NSCLC
[39] = test system: M14 melanoma
[40] = test system: EKVX NSCLC
[41] = test system: MDA-MB-468 breast
[42] = test system: SK-OV-3 ovarian
[43] = test system: MDA-MB-435 melanoma
[44] = test system: HT29 colon
[45] = test system: SF-268 CNS
[46] = test system: U251 glioblastoma
[47] = test system: NCI-H522 lung
[48] = test system: HL-60(TB) leukemia
[49] = test system: LOX IMVI melanoma
[50] = test system: CAKI-1 renal
[51] = test system: OVCAR-4 ovarian
[52] = test system: UO-31 renal
[53] = test system: OVCAR-5 ovarian
[54] = test system: UACC-257 melanoma
[55] = test system: MALME-3M melanoma
[56] = test system: HCT-116 colon
[57] = test system: HOP-62 NSCLC
[58] = test system: ACHN renal

`C=CC(=O)Nc1cccc(Nc2nc(Nc3ccc(N4CCN(C(C)=O)CC4)cc3OC)ncc2C(F)(F)F)c1` showed a GI50 [1] of 1.38 µM, a TGI [1] of 6.51 µM and a GI50 [2] of 0.493 µM. It also gave a TGI [2] of 2.09 µM, a GI50 [3] of 2.83 µM and a TGI [3] of 10.2 µM. It also gave a GI50 [4] of 0.521 µM, a TGI [4] of 1.87 µM and a GI50 [5] of 8.32 µM. It also gave a TGI [5] of 20.9 µM, a GI50 [6] of 1.62 µM and a TGI [6] of 4.78 µM. For the same compound, the GI50 [7] was 1.75 µM, the TGI [7] was 3.45 µM and the GI50 [8] was 1.83 µM. The TGI [8] was 8.62 µM, the GI50 [9] was 2.87 µM and the TGI [9] was 10.2 µM. It also gave a GI50 [10] of 0.905 µM, a TGI [10] of 5.28 µM and a GI50 [11] of 1.94 µM. The TGI [11] was 6.87 µM, the GI50 [12] was 3.76 µM and the TGI [12] was 13.5 µM. For the same compound, the GI50 [13] was 1.34 µM, the TGI [13] was 3.19 µM and the GI50 [14] was 2.36 µM. The TGI [14] was 11.8 µM, the GI50 [15] was 10.2 µM and the TGI [15] was 23.9 µM. It also gave a GI50 [16] of 2.98 µM, a TGI [16] of 12.2 µM and a GI50 [17] of 4.33 µM. It also gave a TGI [17] of 15.9 µM, a GI50 [18] of 1.44 µM and a TGI [18] of 5.28 µM. The GI50 [19] was 2.71 µM, the TGI [19] was 7.5 µM and the GI50 [20] was 3.46 µM. The TGI [20] was 17.6 µM, the GI50 [21] was 2.07 µM and the TGI [21] was 9.13 µM. The GI50 [22] was 1.81 µM, the TGI [22] was 9.76 µM and the GI50 [23] was 1.22 µM. For the same compound, the TGI [23] was 3.35 µM, the GI50 [24] was 2.05 µM and the TGI [24] was 5.91 µM. The GI50 [25] was 1.89 µM, the TGI [25] was 5.16 µM and the GI50 [26] was 1.64 µM. The TGI [26] was 3.22 µM, the GI50 [27] was 1.88 µM and the TGI [27] was 6.6 µM. It also gave a GI50 [28] of 2.61 µM, a TGI [28] of 13.7 µM and a GI50 [29] of 2.16 µM. For the same compound, the TGI [29] was 14.4 µM, the GI50 [30] was 6.74 µM and the TGI [30] was 19.8 µM. The GI50 [31] was 3.51 µM, the TGI [31] was 14 µM and the GI50 [32] was 2.06 µM. It also gave a TGI [32] of 7.69 µM, a GI50 [33] of 1.4 µM and a TGI [33] of 8.2 µM. The GI50 [34] was 3.46 µM, the TGI [34] was 14.1 µM and the GI50 [35] was 1.9 µM. It also gave a TGI [35] of 6.58 µM, a GI50 [36] of 2.17 µM and a TGI [36] of 8.75 µM. For the same compound, the GI50 [37] was 10.6 µM, the TGI [37] was 22.7 µM and the GI50 [38] was 0.597 µM. It also gave a TGI [38] of 4.84 µM, a GI50 [39] of 1.94 µM and a TGI [39] of 8.31 µM. For the same compound, the GI50 [40] was 1.07 µM, the TGI [40] was 3.72 µM and the GI50 [41] was 0.157 µM. The TGI [41] was 0.81 µM, the GI50 [42] was 2.03 µM and the TGI [42] was 9.89 µM. The GI50 [43] was 4.73 µM, the TGI [43] was 17.1 µM and the GI50 [44] was 1.8 µM. For the same compound, the TGI [44] was 5.07 µM, the GI50 [45] was 0.268 µM and the TGI [45] was 2.24 µM. It also gave a GI50 [46] of 5.04 µM, a TGI [46] of 17.2 µM and a GI50 [47] of 0.288 µM. The TGI [47] was 1.55 µM, the GI50 [48] was 1.4 µM and the TGI [48] was 2.74 µM. It also gave a GI50 [49] of 2.64 µM, a TGI [49] of 10.4 µM and a GI50 [50] of 1.91 µM. For the same compound, the TGI [50] was 6.28 µM, the GI50 [51] was 4.33 µM and the TGI [51] was 34.6 µM. It also gave a GI50 [52] of 2.26 µM, a TGI [52] of 9.61 µM and a GI50 [53] of 2.33 µM. It also gave a TGI [53] of 14.6 µM, a GI50 [54] of 2.54 µM and a TGI [54] of 11.1 µM. The GI50 [55] was 2.39 µM, the TGI [55] was 8.83 µM and the GI50 [56] was 3.04 µM. It also gave a TGI [56] of 13.1 µM, a GI50 [57] of 1.97 µM and a TGI [57] of 12.4 µM. The GI50 [58] was 1.94 µM and the TGI [58] was 19 µM.
